Assay results from patent US20160326142A1, “PYRAZOLE CARBOXAMIDE COMPOUNDS, COMPOSITIONS AND METHODS OF USE” (Genentech, Inc., priority 2012, published 2016).

Target: T1, ITK (Homo sapiens, UniProt Q08881)
T1 construct: purchased Invitrogen PV3875
T1 sequence (Q08881 1-620): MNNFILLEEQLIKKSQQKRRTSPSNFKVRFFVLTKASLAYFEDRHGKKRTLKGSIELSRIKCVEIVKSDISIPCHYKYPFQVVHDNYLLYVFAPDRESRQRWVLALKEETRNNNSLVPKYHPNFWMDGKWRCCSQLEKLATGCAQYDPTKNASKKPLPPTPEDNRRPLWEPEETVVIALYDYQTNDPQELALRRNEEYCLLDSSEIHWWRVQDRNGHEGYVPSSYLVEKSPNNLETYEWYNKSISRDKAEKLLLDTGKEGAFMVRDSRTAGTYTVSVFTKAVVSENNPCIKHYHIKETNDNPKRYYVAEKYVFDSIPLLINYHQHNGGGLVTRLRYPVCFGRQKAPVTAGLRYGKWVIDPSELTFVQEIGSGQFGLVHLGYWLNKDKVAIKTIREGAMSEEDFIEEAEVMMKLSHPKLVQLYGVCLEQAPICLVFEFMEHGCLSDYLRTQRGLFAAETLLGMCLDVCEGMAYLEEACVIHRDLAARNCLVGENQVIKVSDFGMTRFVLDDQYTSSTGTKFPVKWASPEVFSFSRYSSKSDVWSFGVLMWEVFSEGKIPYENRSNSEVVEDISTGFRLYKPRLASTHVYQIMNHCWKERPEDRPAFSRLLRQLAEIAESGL
Assay: ITK enzyme assay (Caliper or LCMS peptide phosphorylation)
Type: biochemical
Conditions: purified ITK (Invitrogen PV3875), 20 μM ATP, Ki by Morrison's quadratic equation
In short: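 Purified human ITK peptide phosphorylation, quenched with EDTA (50 mM final) for Caliper LabChip separation or TCA (5% v/v final) for UPLC-MS/MS MRM quantification. Ki derived via Morrison tight-binding equation, corrected for competitive inhibition using ATP concentration relative to Km,app.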

Compound	Ki [nM]
CC1(C)CCc2c(C(=O)Nc3cnn(C(c4cccnc4)C4CC[S+]([O-])CC4)c3)n[nH]c2C1 (single isomer, unassigned) [Example 147b, 6,6-dimethyl-N-(1-((1-oxidotetrahydro-2H-thiopyran-4-yl)(pyridin-3-yl)methyl)-1H-pyrazol-4-yl)-4,5,6,7-tetrahydro-1H-indazole-3-carboxamide]	4
CC1(C)CCc2c(C(=O)Nc3cnn(C(c4cccnc4)C4CC[S+]([O-])CC4)c3)n[nH]c2C1 (single isomer, unassigned) [Example 147c, 6,6-dimethyl-N-(1-((1-oxidotetrahydro-2H-thiopyran-4-yl)(pyridin-3-yl)methyl)-1H-pyrazol-4-yl)-4,5,6,7-tetrahydro-1H-indazole-3-carboxamide]	7
CC1(C)CCc2c(C(=O)Nc3cnn(C(c4cccnc4)C4CC[S+]([O-])CC4)c3)n[nH]c2C1 (single isomer, unassigned) [Example 147d, 6,6-dimethyl-N-(1-((1-oxidotetrahydro-2H-thiopyran-4-yl)(pyridin-3-yl)methyl)-1H-pyrazol-4-yl)-4,5,6,7-tetrahydro-1H-indazole-3-carboxamide]	0.6
O=C1CCC2(CCc3c(C(=O)Nc4cnn(Cc5ccccc5)c4)n[nH]c3C2)N1 (single isomer, unassigned) [Example 148a, N-(1-benzyl-1H-pyrazol-4-yl)-5′-oxo-1,4,5,7-tetrahydrospiro[indazole-6,2′-pyrrolidine]-3-carboxamide]	> 400
O=C1CCC2(CCc3c(C(=O)Nc4cnn(Cc5ccccc5)c4)n[nH]c3C2)N1 (single isomer, unassigned) [Example 148b, N-(1-benzyl-1H-pyrazol-4-yl)-5′-oxo-1,4,5,7-tetrahydrospiro[indazole-6,2′-pyrrolidine]-3-carboxamide]	> 400
CC1(N2CCOCC2)CCc2c(C(=O)Nc3cnn(Cc4ccccc4)c3)n[nH]c2C1 (single isomer, unassigned) [Example 149a, N-(1-benzyl-1H-pyrazol-4-yl)-6-methyl-6-morpholino-4,5,6,7-tetrahydro-1H-indazole-3-carboxamide]	> 400
CC1(N2CCOCC2)CCc2c(C(=O)Nc3cnn(Cc4ccccc4)c3)n[nH]c2C1 (single isomer, unassigned) [Example 149b, N-(1-benzyl-1H-pyrazol-4-yl)-6-methyl-6-morpholino-4,5,6,7-tetrahydro-1H-indazole-3-carboxamide]	> 400
CC12Cc3[nH]nc(C(=O)Nc4cnn(Cc5ccccc5)c4)c3C1C2 (single isomer, unassigned) [Example 150a, N-(1-benzyl-1H-pyrazol-4-yl)-4a-methyl-3b,4,4a,5-tetrahydro-1H-cyclopropa[3,4]cyclopent a[1,2-c]pyrazole-3-carboxamide]	130
CC12Cc3[nH]nc(C(=O)Nc4cnn(Cc5ccccc5)c4)c3C1C2 (single isomer, unassigned) [Example 150b, N-(1-benzyl-1H-pyrazol-4-yl)-4a-methyl-3b,4,4a,5-tetrahydro-1H-cyclopropa[3,4]cyclopent a[1,2-c]pyrazole-3-carboxamide]	32
N#Cc1cccc(Cn2cc(NC(=O)c3n[nH]c4c3CCCC4)cn2)c1 [Example 3, N-(1-(3-cyanobenzyl)-1H-pyrazol-4-yl)-4,5,6,7-tetrahydro-1H-indazole-3-carboxamide]	31
O=C(Nc1cnn(Cc2ccccc2)c1)c1n[nH]c2c1CC1(CC2)COC1 [Example 13, N-(1-benzyl-1H-pyrazol-4-yl)-1,4,6,7-tetrahydrospiro[indazole-5,3′-oxetane]-3-carboxamide]	240
O=C(Nc1cnn(Cc2ccccc2)c1)c1n[nH]c2c1CC(F)(F)CC2 [Example 17, N-(1-benzyl-1H-pyrazol-4-yl)-5,5-difluoro-4,5,6,7-tetrahydro-1H-indazole-3-carboxamide]	36
N#Cc1cccc(Cn2cc(NC(=O)c3n[nH]c4c3CCC4)cn2)c1 [Example 20, N-(1-(3-cyanobenzyl)-1H-pyrazol-4-yl)-1,4,5,6-tetrahydrocyclopenta[c]pyrazole-3-carboxamide]	89
CC1(C)Cc2[nH]nc(C(=O)Nc3cnn(Cc4ccccc4)c3)c2C1 [Example 21, N-(1-benzyl-1H-pyrazol-4-yl)-5,5-dimethyl-1,4,5,6-tetrahydrocyclopenta[c]pyrazole-3-carb oxamide]	7.4
O=C(Nc1cnn(Cc2ccccc2)c1)c1n[nH]c2c1C1CC(C2)C1 [Example 31, N-(1-benzyl-1H-pyrazol-4-yl)-4,5,6,7-tetrahydro-1H-4,6-methanoindazole-3-carboxamide]	260
O=C(Nc1cnn(Cc2ccccc2)c1)c1n[nH]c2c1CC1CC2C1 [Example 32, N-(1-benzyl-1H-pyrazol-4-yl)-4,5,6,7-tetrahydro-1H-5,7-methanoindazole-3-carboxamide]	38
CC1(O)CCc2c(C(=O)Nc3cnn(Cc4ccccc4)c3)n[nH]c2C1 (stereo not drawn) [Example 51b, N-(1-benzyl-1H-pyrazol-4-yl)-6-hydroxy-6-methyl-4,5,6,7-tetrahydro-1H-indazole-3-carboxamide]	860

Continued, values first:

Ki [nM]	Compound
16	CC12Cc3c(C(=O)Nc4cnn(Cc5ccccc5)c4)n[nH]c3C1C2 (single isomer, unassigned) [Example 151a, N-(1-benzyl-1H-pyrazol-4-yl)-4a-methyl-4,4a,5,5a-tetrahydro-1H-cyclopropa[4,5]cyclopent a[1,2-c]pyrazole-3-carboxamide]
12	CC12Cc3c(C(=O)Nc4cnn(Cc5ccccc5)c4)n[nH]c3C1C2 (single isomer, unassigned) [Example 151b, N-(1-benzyl-1H-pyrazol-4-yl)-4a-methyl-4,4a,5,5a-tetrahydro-1H-cyclopropa[4,5]cyclopent a[1,2-c]pyrazole-3-carboxamide]
42	CC12Cc3c(C(=O)Nc4cnn(C(c5ccccc5)C5CCS(=O)(=O)CC5)c4)n[nH]c3C1C2 (single isomer, unassigned) [Example 152a, N-(1-((1,1-dioxidotetrahydro-2H-thiopyran-4-yl)(phenyl)methyl)-1H-pyrazol-4-yl)-4a-methyl-4,4a,5,5a-tetrahydro-1H-cyclopropa[4,5]cyclopenta[1,2-c]pyrazole-3-carboxamide]
3	CC12Cc3c(C(=O)Nc4cnn(C(c5ccccc5)C5CCS(=O)(=O)CC5)c4)n[nH]c3C1C2 (single isomer, unassigned) [Example 152b, N-(1-((1,1-dioxidotetrahydro-2H-thiopyran-4-yl)(phenyl)methyl)-1H-pyrazol-4-yl)-4a-methyl-4,4a,5,5a-tetrahydro-1H-cyclopropa[4,5]cyclopenta[1,2-c]pyrazole-3-carboxamide]
2	CC12Cc3c(C(=O)Nc4cnn(C(c5ccccc5)C5CCS(=O)(=O)CC5)c4)n[nH]c3C1C2 (single isomer, unassigned) [Example 152c, N-(1-((1,1-dioxidotetrahydro-2H-thiopyran-4-yl)(phenyl)methyl)-1H-pyrazol-4-yl)-4a-methyl-4,4a,5,5a-tetrahydro-1H-cyclopropa[4,5]cyclopenta[1,2-c]pyrazole-3-carboxamide]
15	CC12Cc3c(C(=O)Nc4cnn(C(c5ccccc5)C5CCS(=O)(=O)CC5)c4)n[nH]c3C1C2 (single isomer, unassigned) [Example 152d, N-(1-((1,1-dioxidotetrahydro-2H-thiopyran-4-yl)(phenyl)methyl)-1H-pyrazol-4-yl)-4a-methyl-4,4a,5,5a-tetrahydro-1H-cyclopropa[4,5]cyclopenta[1,2-c]pyrazole-3-carboxamide]
58	CC12CCc3c(C(=O)Nc4cnn(Cc5ccccc5)c4)n[nH]c3C1C2 (single isomer, unassigned) [Example 153a, N-(1-benzyl-1H-pyrazol-4-yl)-5a-methyl-1,4,5,5a,6,6a-hexahydrocyclopropa[g]indazole-3-c arboxamide]
15	CC12CCc3c(C(=O)Nc4cnn(Cc5ccccc5)c4)n[nH]c3C1C2 (single isomer, unassigned) [Example 153b, N-(1-benzyl-1H-pyrazol-4-yl)-5a-methyl-1,4,5,5a,6,6a-hexahydrocyclopropa[g]indazole-3-c arboxamide]
0.1	CC1(C)CCc2c(C(=O)Nc3cnn(C(c4cccc(S(C)(=O)=O)c4)C4CCOCC4)c3)n[nH]c2C1 (single isomer, unassigned) [Example 154a, 6,6-dimethyl-N-(1-((3-(methylsulfonyl)phenyl)(tetrahydro-2H-pyran-4-yl)methyl)-1H-pyrazol-4-yl)-4,5,6,7-tetrahydro-1H-indazole-3-carboxamide]
1	CC1(C)CCc2c(C(=O)Nc3cnn(C(c4cccc(S(C)(=O)=O)c4)C4CCOCC4)c3)n[nH]c2C1 (single isomer, unassigned) [Example 154b, 6,6-dimethyl-N-(1-((3-(methylsulfonyl)phenyl)(tetrahydro-2H-pyran-4-yl)methyl)-1H-pyrazol-4-yl)-4,5,6,7-tetrahydro-1H-indazole-3-carboxamide]
